In brackets after ≈: the same amount, converted by molar mass. Read-outs that look alike come from different tables or passages of the source.
Experiments:
[1] = system: ADC-217 in DH10B Escherichia coli; assay: MIC by broth microdilution, ADC-217 in DH10B E. coli; assay type: cell-based; details: DH10B E. coli expressing ADC-217 (non-Adup) from pBCSK−, FDC in iron-depleted cation-adjusted MH broth, mode of triplicate
Procedure: (§1) Susceptibility testing to standard antibiotics was performed by broth microdilution according to 2024 Clinical and Laboratory Standards Institute (CLSI) guidelines ([38]). MICs for FDC were done in iron-depleted cation-adjusted Mueller-Hinton (MH) broth according to CLSI methods. All MICs were interpreted according to the 2024 CLSI guidelines ([38]). MICs are done in triplicate, and the mode MIC value is reported.
(§2) blaADC-7 pBCSK− was cloned and expressed in E. coli DH10B cells as previously described for MIC determinations ([3]). The pBCSK-non-inducible phagemid vector has a chloramphenicol resistance gene used to aid selection. All other blaADC variants were synthesized by GenScript according to the blaADC-7 pBCSK− strategy, cloning into the XbaI/BamHI sites of the pBCSK− vector ([5]).

[2] = system: ADC-33 in DH10B Escherichia coli; assay: MIC by broth microdilution, ADC-33 in DH10B E. coli; assay type: cell-based; details: DH10B E. coli expressing ADC-33 (Adup) from pBCSK−, FDC in iron-depleted cation-adjusted MH broth, mode of triplicate
Procedure: as §1, §2

[3] = system: ADC-172 in DH10B Escherichia coli; assay: MIC by broth microdilution, ADC-172 in DH10B E. coli; assay type: cell-based; details: for MIC: DH10B E. coli expressing ADC-172 (Adup) from pBCSK−, FDC in iron-depleted cation-adjusted MH broth, mode of triplicate
Procedure: as §1, §2

[4] = system: ADC-218 in DH10B Escherichia coli; assay: MIC by broth microdilution, ADC-218 in DH10B E. coli; assay type: cell-based; details: DH10B E. coli expressing ADC-218 (Adup) from pBCSK−, FDC in iron-depleted cation-adjusted MH broth, mode of triplicate
Procedure: as §1, §2

[5] = system: DH10B Escherichia coli pBCSK− no insert; assay: MIC by broth microdilution, DH10B E. coli with pBCSK− no insert; assay type: cell-based; details: DH10B E. coli with pBCSK− no insert (control strain), FDC in iron-depleted cation-adjusted MH broth
Procedure: as §1, §2

DH10B alone = assay: MIC by broth microdilution, DH10B alone; assay type: cell-based; details: Escherichia coli; DH10B alone (control strain); FDC in iron-depleted cation-adjusted MH broth
Procedure: as §1, §2

ADC-7 = ADC-7 (Acinetobacter baumannii, UniProt Q6DRA1); assay: Competition kinetics with nitrocefin (Ki), ADC-7; assay type: biochemical; details: 3 min pre-incubation, Cheng-Prusoff corrected
Procedure: (§3) For inhibition kinetics, utilizing NCF as a colorimetric substrate of ADCs, the inhibition constant (Ki) of CAZ and FDC with ADCs was determined using competition kinetics as previously described ([5]). After a 3 min pre-incubation of the enzyme (2 nM) with increasing concentration of the inhibitor, measurements of the initial velocities were performed with the addition of 100–200 µM NCF (twofold of the experimentally determined KM value). To determine the average velocities (v0), data from three experiments were fit to the followingequation: […]
(§4) where vu represents the NCF uninhibited velocity and IC50 represents the inhibitor concentration that results in a 50% reduction of vu. The Ki value was corrected for the NCF affinity (KM values for each ADC) with the Cheng-Prusoff ([5]) equation: […]
(§5) The standard error for Ki values was generated by factoring in the larger of the proportional standard errors for the individual IC50 value and the KM -NCF value.

ADC-30 [6] = target: T1, ADC-30 (Acinetobacter baumannii, UniProt A7XM81); assay: Competition kinetics with nitrocefin (Ki), ADC-30; assay type: biochemical; details: 3 min pre-incubation, Cheng-Prusoff corrected
Procedure: as §3, §4, §5

ADC-73 = ADC-73 (Acinetobacter baumannii, UniProt A0A059ZDI2); assay: Competition kinetics with nitrocefin (Ki), ADC-73; assay type: biochemical; details: 3 min pre-incubation, Cheng-Prusoff corrected
Procedure: as §3, §4, §5

ADC-143 = ADC-143 (Acinetobacter baumannii, UniProt Q6DRA1, Q144K, form not given); assay: Competition kinetics with nitrocefin (Ki), ADC-143; assay type: biochemical; details: 3 min pre-incubation, Cheng-Prusoff corrected
Procedure: as §3, §4, §5

ADC-217 [7] = target: T2, ADC-217 (Acinetobacter baumannii, UniProt Q6DRA1, V286E, form not given); assay: Competition kinetics with nitrocefin (Ki), ADC-217; assay type: biochemical; details: 3 min pre-incubation, Cheng-Prusoff corrected
Procedure: as §3, §4, §5

ADC-33 [8] = target: T3, ADC-33 (Acinetobacter baumannii, UniProt A7Y407); assay: Competition kinetics with nitrocefin (Ki), ADC-33; assay type: biochemical; details: 3 min pre-incubation, Cheng-Prusoff corrected
Procedure: as §3, §4, §5

ADC-172 = ADC-172 (Acinetobacter baumannii, UniProt A7Y407, N321K); assay: Competition kinetics with nitrocefin (Ki), ADC-172; assay type: biochemical; details: 3 min pre-incubation, Cheng-Prusoff corrected
Procedure: as §3, §4, §5

ADC-30 [9] = target: T1, ADC-30; assay: Timed electrospray ionization mass spectrometry of acylated adducts, ADC-30; assay type: binding; details: ADC-30, +468 Da adduct, at 1 h; enzyme:substrate 1:25
Procedure: (§6) β-Lactamase (5 µg) was incubated with substrate at a molar ratio of 1:25 (FDC, CAZ, meropenem [MEM]) in sterile 10 mM PBS, pH 7.4, for a total reaction volume of 20 µL (t = 30 s, 1 min, 15 min, 30 min, 1 h, 2 h, and 24 h). Reactions were quenched with 1% acetonitrile and 0.1% formic acid. Samples were analyzed using Q-TOF Waters Synapt-G2-Si and a Waters Acquity ultrapressure liquid chromatography BEH C18 column (1.7 µm […]; 2.1 × 50 mm). MassLynx v.4.1 was used to deconvolute protein peaks. The tune settings for each data run were as follows: capillary voltage at 3.5 kV, sampling cone at 35, source offset at 35, source temperature 100°C, desolvation temperature 500°C, cone gas at 100 L/h, desolvation gas at 800 L/h, and nebulizer bar at 6.0. Mobile phase A was 0.1% formic acid-water. Mobile phase B was 0.1% formic acid-acetonitrile. The mass accuracy for this system is ±5 Da. Mass spectrometry experiments were performed once over a range of time points.

ADC-33 [10] = target: T3, ADC-33; assay: Timed electrospray ionization mass spectrometry of acylated adducts, ADC-33; assay type: binding; details: ADC-33, incubation 30 s–1 h; enzyme:substrate 1:25
Procedure: as §6

ADC-30 [11] = target: T1, ADC-30; assay: Thermal denaturation by circular dichroism, ADC-30; assay type: binding; details: ADC-30 12 µM, 1 mM antibiotic, PBS pH 7.4; read-out: change of Tm of the β-lactamase on addition of antibiotic
Procedure: (§7) For thermal denaturation, protein samples were monitored for helical content by circular dichroism in the far-UV region at 210 and 220 nm using a Jasco J-815 spectrometer (Easton, MD) with a Peltier-effect temperature controller, as previously described ([41]). Enzyme concentrations were 12 µM in phosphate-buffered saline (PBS) pH 7.4. The thermodynamic stability of apoADC-30 and ADC-33, and with 1 mM FDC and CAZ, was determined from equilibrium unfolding curves. With the assumption of a reversible two-state transition, we determined the Tm at the midpoint of equilibrium folding. Thermal denaturation experiments were done in duplicate under the same conditions, with each data point representing the average of three successive scans, and the Tm values are consistent with ±1°C variation.

ADC-33 [12] = target: T3, ADC-33; assay: Thermal denaturation by circular dichroism, ADC-33; assay type: binding; details: ADC-33 12 µM, 1 mM antibiotic, PBS pH 7.4
Procedure: as §7

ADC-33 [13] = target: T3, ADC-33; details: hydrolysis by ADC-33; previously determined; cited from earlier work
CRAb isolates = details: certain CRAb isolates with elevated MICs; cited from earlier work
[14] = system: ADC-7 in DH10B Escherichia coli; assay: MIC by broth microdilution, ADC-7 in DH10B E. coli; assay type: cell-based; details: DH10B E. coli expressing ADC-7 (non-Adup) from pBCSK−, FDC in iron-depleted cation-adjusted MH broth, mode of triplicate
Procedure: as §1, §2

[15] = system: ADC-30 in DH10B Escherichia coli; assay: MIC by broth microdilution, ADC-30 in DH10B E. coli; assay type: cell-based; details: DH10B E. coli expressing ADC-30 (non-Adup) from pBCSK−, FDC in iron-depleted cation-adjusted MH broth, mode of triplicate
Procedure: as §1, §2

[16] = system: ADC-73 in DH10B Escherichia coli; assay: MIC by broth microdilution, ADC-73 in DH10B E. coli; assay type: cell-based; details: DH10B E. coli expressing ADC-73 (non-Adup) from pBCSK−, FDC in iron-depleted cation-adjusted MH broth, mode of triplicate
Procedure: as §1, §2

[17] = system: ADC-143 in DH10B Escherichia coli; assay: MIC by broth microdilution, ADC-143 in DH10B E. coli; assay type: cell-based; details: DH10B E. coli expressing ADC-143 (non-Adup) from pBCSK−, FDC in iron-depleted cation-adjusted MH broth, mode of triplicate
Procedure: as §1, §2

[18] = system: ADC-219 in DH10B Escherichia coli; assay: MIC by broth microdilution, ADC-219 in DH10B E. coli; assay type: cell-based; details: DH10B E. coli expressing ADC-219 (Adup) from pBCSK−, FDC in iron-depleted cation-adjusted MH broth, mode of triplicate
Procedure: as §1, §2

ADC-217 [19] = target: T2, ADC-217; assay: Steady-state hydrolysis kinetics, ADC-217; assay type: biochemical; details: hydrolysis by ADC-217
Procedure: Steady-state kinetic parameters were determined by combining pure enzyme with antibiotic substrates in 50 mM NaH2PO4, pH 7.4, at room temperature. Changes in absorbance were measured on the Cary 60 UV−Vis spectrophotometer (Agilent Technologies) and converted to velocity using the change in extinction coefficient specific to nitrocefin (NCF) (ε482 = 17,400 M^−1·cm^−1), CAZ (ε260 8,660 M^−1·cm^−1), and cefiderocol (ε259 9,430 M^−1·cm^−1). The concentration of enzyme ranged from 0.1 to 1.0 µM, and all kinetic experiments were performed at least in triplicate. Initial velocities were fitted to the Michaelis-Menten equation, yielding kcat and KM values. The standard error for kcat/KM values was generated by factoring in the larger of the proportional standard errors for the individual kcat value and the KM value. For ADC/substrate combinations in which the KM was too large to accurately determine both kcat and KM values, the initial velocities at kcat/KM values were calculated from linear fits of vo in low [S] ranges (<0.08 * KM).

[20] = system: ADC variants in DH10B Escherichia coli; assay: MIC, statements across ADC variants in E. coli; assay type: cell-based
Procedure: as §1, §2

[21] = Escherichia coli, read-out: MIC

Row | Compound | MIC [1] [µg/mL] | MIC [2] [µg/mL] | MIC [3, 21] [µg/mL] | MIC [4] [µg/mL] | MIC [5] [µg/mL] | MIC (DH10B alone) [µg/mL] | MIC [14] [µg/mL] | MIC [15] [µg/mL] | MIC [16] [µg/mL] | MIC [17] [µg/mL] | MIC [18] [µg/mL] | other results
1 | CC(C)(O/N=C(\C(=O)N[C@@H]1C(=O)N2C(C(=O)[O-])=C(C[N+]3(CCNC(=O)c4ccc(O)c(O)c4Cl)CCCC3)CS[C@H]12)c1csc(N)n1)C(=O)O [FDC, cefiderocol] | 0.25 (≈ 0.332 µM) | 0.5 (≈ 0.665 µM) | 1 (≈ 1.33 µM) | 0.5 (≈ 0.665 µM) | 0.125 (≈ 0.166 µM) | 0.06 (≈ 0.0798 µM) | – | – | – | – | – | MIC [3]: 1.0 µg/mL (≈ 1.33 µM); Ki (ADC-7): 75 ± 5.32 µM; Ki (ADC-30 [6]): 62.7 ± 3.95 µM; Ki (ADC-73): 111 ± 9.7 µM; Ki (ADC-143): 171 ± 27.7 µM; Ki (ADC-217 [7]): 0.21 ± 0.025 µM; Ki (ADC-33 [8]): 19.3 ± 1.46 µM; Ki (ADC-172): 3.26 ± 0.31 µM; percentage of acylated adduct (ADC-30 [9]): 70%; formation of stable acyl-enzyme adduct (ADC-33 [10]): did not form a stable acyl-enzyme adduct; ΔTm at 1000 µM (ADC-30 [11]): 2 °C; change of Tm of the β-lactamase on addition of antibiotic (ADC-33 [12]): not observed; kcat (ADC-33 [13]): 0.60 s⁻¹; MIC (CRAb isolates): ≥ 64 µg/mL
2 | CO/N=C(\C(=O)N[C@@H]1C(=O)N2C(C(=O)[O-])=C(C[N+]3(C)CCCC3)CS[C@H]12)c1csc(N)n1 [FEP, cefepime] | 16 (≈ 33.3 µM) | 1 (≈ 2.08 µM) | 8 (≈ 16.6 µM) | 4 (≈ 8.32 µM) | 0.03 (≈ 0.0624 µM) | 0.06 (≈ 0.125 µM) | 0.5 (≈ 1.04 µM) | 0.5 (≈ 1.04 µM) | 0.25 (≈ 0.52 µM) | 0.25 (≈ 0.52 µM) | 0.125 (≈ 0.26 µM) | fold increase in MIC from ADC-30 to ADC-172 ([3]; DH10B E. coli, ADC-172 versus ADC-30): ≤ 16 fold; Km (ADC-217 [19]): 155 µM; kcat (ADC-217 [19]): 30.2 s⁻¹
3 | C[C@@H](O)[C@H]1C(=O)N2C(C(=O)O)=C(SCCN=CN)C[C@H]12 [IPM, imipenem] | – | – | – | – | 0.25 (≈ 0.835 µM) | – | – | – | – | – | – | –
4 | Cn1c(N)c(NC(=O)NCCN)c[n+]1CC1=C(C(=O)O)N2C(=O)[C@@H](NC(=O)/C(=N\OC(C)(C)C(=O)[O-])c3nsc(N)n3)[C@H]2SC1 [TOL, ceftolozane] | 16 (≈ 24 µM) | 512 (≈ 768 µM) | 512 (≈ 768 µM) | 512 (≈ 768 µM) | 0.5 (≈ 0.75 µM) | 0.5 (≈ 0.75 µM) | 8 (≈ 12 µM) | 4 (≈ 6 µM) | 2 (≈ 3 µM) | 16 (≈ 24 µM) | 128 (≈ 192 µM) | MIC [20]: ≥ 512 µg/mL
